Source: the supplement of paper PMC10307832

What was measured:
Experiment in all cases: relative viability (nuclei count vs DMSO), 5 days (fraction); higher = more cells survive
[1] = compound: C[C@@H](N)c1ccc(C(=O)Nc2ccnc3[nH]ccc23)cc1 + O=C(CCCCCCC(=O)Nc1ccccc1)NO [Vorinostat] (partner 1 µM)
Method in brief: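 Cells from lung cancer lines were seeded into 1536-well plates and, one day later, dosed by pin tool. Treatments were either a single drug or a fixed dose of an anchor drug with five library-drug doses (not always all listed) in √10 steps. After 5 days, nuclei were stained in a one-step fixation (final 0.05% Triton X-100, 1% formaldehyde, 1 ug/ml Hoechst) and counted on 4× images, and relative viability is the treated-to-vehicle nuclei ratio, as the median of duplicate plates.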

Tanzisertib = compound: O[C@H]1CC[C@H](Nc2ncc3nc(Nc4c(F)cc(F)cc4F)n([C@H]4CCOC4)c3n2)CC1 [Tanzisertib]
Method in brief: (§1)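 Lung cancer cell lines in 1536-well plates were kept overnight at 37 °C, then pinned with five library-drug doses (not always all listed) spaced by √10 on vehicle-anchored plates. After 5 days without medium change, cells were fixed, permeabilised and Hoechst-stained in one step, imaged at 4×, and nuclei were counted with MetaXpress. Viability is treated-well nuclei divided by vehicle-well nuclei, taken as the median over plates. Plates passed only with control CV below 25% and at least one doubling.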

[2] = compound: C1CNCCC1C2=CC(=NN2)C3=CC=NC=C3
Method in brief: as §1

[3] = compound: C[C@@H](N)c1ccc(C(=O)Nc2ccnc3[nH]ccc23)cc1
Method in brief: as §1

Cell Line: UMC-11
- relative viability ([1]; first compound 0.04 µM): 0.459
- relative viability ([1]; first compound 0.1265 µM): 0.514
- relative viability ([1]; first compound 0.4 µM): 0.515
- relative viability ([1]; first compound 1.265 µM): 0.504
- relative viability ([1]; first compound 4 µM): 0.356
- relative viability (Tanzisertib; 0.08 µM): 1.09
- relative viability (Tanzisertib; 0.253 µM): 0.973
- relative viability (Tanzisertib; 0.8 µM): 1.01
- relative viability (Tanzisertib; 2.53 µM): 0.987
- relative viability (Tanzisertib; 8 µM): 1.01
- relative viability ([2]; 0.08 µM): 0.862
- relative viability ([2]; 0.8 µM): 1.16
- relative viability ([2]; 2.53 µM): 1.01
- relative viability ([2]; 8 µM): 0.992
- relative viability ([3]; 0.04 µM): 0.954
- relative viability ([3]; 0.1265 µM): 1.07
- relative viability ([3]; 0.4 µM): 1.16
- relative viability ([3]; 1.265 µM): 0.712
- relative viability ([3]; 4 µM): 0.784
